Test results published in the supplement of paper PMC11061612.

What was measured:
[1] = test system: OCI-AML3 (Acute Myeloid Leukemia); experiment: combination Emax (second highest fraction inhibited in the dose matrix, 72 h); higher = more inhibition; extreme values may be limits of the assay
Procedure, shortened: (§1)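 Cell lines grown in DMEM/F12 or RPMI with 10% FBS were plated in 1536-well plates and held 24 hours at 37°C, 5% CO2 before 72 hours of exposure to two-drug dose matrices, with DMSO typically at 0.2%. CellTiter-Glo 2.0 luminescence gave viability, which was converted to inhibition. Vehicle wells were set to 0 and blank wells to 1. Combination Emax is the second-highest inhibition in the matrix, and Bliss excess is the observed combination effect minus the expected EA + EB − EA·EB, where EA and EB are the single-agent effects.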

[2] = test system: T-T (Esophageal Squamous Cell Carcinoma); experiment: as above
Procedure, shortened: as §1

[3] = test system: H9 (T-Cell Non-Hodgkin's Lymphoma); experiment: Bliss excess, mean over the matrix (fraction); higher = more synergy
Procedure, shortened: as §1

[4] = test system: IM-95 (Gastric Carcinoma); experiment: as above
Procedure, shortened: as §1

[5] = test system: KY821 (Acute Myeloid Leukemia); experiment: as above
Procedure, shortened: as §1

[6] = test system: H9 (T-Cell Non-Hodgkin's Lymphoma); experiment: combination Emax (second highest fraction inhibited in the dose matrix, 72 h); higher = more inhibition; extreme values may be limits of the assay
Procedure, shortened: as §1

[7] = test system: IM-95 (Gastric Carcinoma); experiment: as above
Procedure, shortened: as §1

[8] = test system: KY821 (Acute Myeloid Leukemia); experiment: as above
Procedure, shortened: as §1
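Wherever Bliss excess, mean over the matrix is given: after 72 h of two-drug dosing.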

SMILES | combination Emax [1] | combination Emax [2] | further results
C[C@@H](Oc1cc(-c2cnn(C3CCNCC3)c2)cnc1N)c1c(Cl)ccc(F)c1Cl [Crizotinib] + CC1=C(C(=CC=C1)Cl)NC(=O)C2=CN=C(S2)NC3=CC(=NC(=N3)C)N4CCN(CC4)CCO [Dasatinib] (first compound max 10 µM, 7x7, partner max 2 µM) | 0.639 | 0.825 | –
CN(CCO)CC[C@H](CSc1ccccc1)Nc1ccc(S(=O)(=O)NC(=O)c2ccc(N3CCC([C@@H](O)c4ccccc4-c4ccc(Cl)cc4)CC3)cc2)cc1S(=O)(=O)C(F)(F)F [AZD4320] + CC(=O)O[C@H]1C(=O)[C@@]2(C)[C@H]([C@H](OC(=O)c3ccccc3)[C@]3(O)C[C@H](OC(=O)[C@H](O)[C@@H](NC(=O)c4ccccc4)c4ccccc4)C(C)=C1C3(C)C)[C@]1(OC(C)=O)CO[C@@H]1C[C@@H]2O [Paclitaxel] (first compound max 1 µM, 7x7, partner max 3 µM) | 1 | 0.92 | –
O=C(c1cc(Cc2n[nH]c(=O)c3ccccc23)ccc1F)N1CCN(C(=O)C2CC2)CC1 [Olaparib] + Cc1c2c(nn1C)CSCc1cc(n(C)n1)CSc1cc(c3ccccc3c1)OCCCc1c(C(=O)O)n(C)c3c-2c(Cl)ccc13 [AZD5991] (first compound max 10 µM, 7x7, partner max 1 µM) | 0.98 | 0.801 | –
N#Cc1cnc(Nc2cc(NC[C@H]3CNCCO3)c(C(F)(F)F)cn2)cn1 [SRA737] + CCc1c2c(nc3ccc(O)cc13)-c1cc3c(c(=O)n1C2)COC(=O)[C@]3(O)CC [SN-38] (first compound max 10 µM, 7x7, partner max 0.3 µM) | 0.849 | 0.834 | –
C[C@@H](Nc1cc(F)cc(F)c1)c1cc(C(=O)N(C)C)cc2c(=O)cc(N3CCOCC3)oc12 [AZD8186] + CC(=O)c1c(C)c2cnc(Nc3ccc(N4CCNCC4)cn3)nc2n(C2CCCC2)c1=O [Palbociclib] (first compound max 10 µM, 7x7, partner max 10 µM) | 0.525 | 0.315 | –
CN(CCO)CC[C@H](CSc1ccccc1)Nc1ccc(S(=O)(=O)NC(=O)c2ccc(N3CCC([C@@H](O)c4ccccc4-c4ccc(Cl)cc4)CC3)cc2)cc1S(=O)(=O)C(F)(F)F [AZD4320] + CS(=O)(=O)CCNCc1ccc(-c2ccc3ncnc(Nc4ccc(OCc5cccc(F)c5)c(Cl)c4)c3c2)o1 [Lapatinib] (first compound max 1 µM, 7x7, partner max 10 µM) | 0.884 | 0.935 | –
Cc1nc(-c2cn3c(n2)-c2ccc(-c4cnn(C(C)(C)C(N)=O)c4)cc2OCC3)n(C(C)C)n1 [Taselisib] + O=C(Nc1ccc2[nH]nc(-c3ccncc3)c2c1)[C@@H]1CCN(CC(=O)N2CCN(c3ccc(-c4ncccn4)cc3)CC2)C1 [SCH772984] (first compound max 10 µM, 7x7, partner max 5 µM) | 0.941 | 0.853 | –
Cc1cc2ncnn2cc1Nc1ncc2c(n1)n(C1CCOCC1)c(=O)n2C [AZD7648] + COc1cc([C@@H]2c3cc4c(cc3[C@@H](O[C@@H]3O[C@@H]5CO[C@@H](C)O[C@H]5[C@H](O)[C@H]3O)[C@H]3COC(=O)[C@H]23)OCO4)cc(OC)c1O [Etoposide] (first compound max 10 µM, 7x7, partner max 10 µM) | 0.943 | 0.362 | –
N#Cc1cnc(Nc2cc(NC[C@H]3CNCCO3)c(C(F)(F)F)cn2)cn1 [SRA737] + C=CCn1c(=O)c2cnc(Nc3ccc(N4CCN(C)CC4)cc3)nc2n1-c1cccc(C(C)(C)O)n1 [AZD1775] (first compound max 10 µM, partner max 1 µM) | 0.934 | 0.671 | –
CS(=O)(=O)CCNCc1ccc(-c2ccc3ncnc(Nc4ccc(OCc5cccc(F)c5)c(Cl)c4)c3c2)o1 [Lapatinib] + NC1(c2ccc(-c3nc4ccn5c(=O)[nH]nc5c4cc3-c3ccccc3)cc2)CCC1 [MK-2206] (first compound max 10 µM, 7x7, partner max 10 µM) | 0.683 | 0.928 | Bliss excess [3]: -0.247; Bliss excess [4]: 0.0488; Bliss excess [5]: 0.0724; combination Emax [6]: 0.94; combination Emax [7]: 0.509; combination Emax [8]: 0.969
O=C(c1cc(Cc2n[nH]c(=O)c3ccccc23)ccc1F)N1CCN(C(=O)C2CC2)CC1 [Olaparib] + COc1nnc2ccc(N3CCC(c4ccc(OCCN5CCN(C)C(=O)[C@H]5C)cc4)CC3)nn12 [AZD5153] (first compound max 10 µM, 7x7, partner max 1 µM) | 1 | 0.48 | –
C[C@@H](Oc1cc(-c2cnn(C3CCNCC3)c2)cnc1N)c1c(Cl)ccc(F)c1Cl [Crizotinib] + Cn1cnc2c(F)c(Nc3ccc(Br)cc3Cl)c(C(=O)NOCCO)cc21 [Selumetinib] (first compound max 10 µM, 7x7, partner max 10 µM) | 0.997 | 0.759 | –
C=CCn1c(=O)c2cnc(Nc3ccc(N4CCN(C)CC4)cc3)nc2n1-c1cccc(C(C)(C)O)n1 [AZD1775] + CCc1c2c(nc3ccc(O)cc13)-c1cc3c(c(=O)n1C2)COC(=O)[C@]3(O)CC [SN-38] (first compound max 1 µM, partner max 0.3 µM) | 0.922 | 0.776 | –
C[C@@H](Nc1cc(F)cc(F)c1)c1cc(C(=O)N(C)C)cc2c(=O)cc(N3CCOCC3)oc12 [AZD8186] + C1CN(CCC1(C(=O)N[C@@H](CCO)C2=CC=C(C=C2)Cl)N)C3=NC=NC4=C3C=CN4 [AZD5363] (first compound max 10 µM, 7x7, partner max 10 µM) | 0.428 | 0.301 | –
N#Cc1cnc(Nc2cc(NC[C@H]3CNCCO3)c(C(F)(F)F)cn2)cn1 [SRA737] + O=c1[nH]cc(F)c(=O)[nH]1 [5-Fluorouracil] (first compound max 10 µM, 7x7, partner max 20 µM) | 0.922 | 0.384 | –
Cc1c2c(nn1C)CSCc1cc(n(C)n1)CSc1cc(c3ccccc3c1)OCCCc1c(C(=O)O)n(C)c3c-2c(Cl)ccc13 [AZD5991] + CS(=O)(=O)CCNCc1ccc(-c2ccc3ncnc(Nc4ccc(OCc5cccc(F)c5)c(Cl)c4)c3c2)o1 [Lapatinib] (first compound max 1 µM, 7x7, partner max 10 µM) | 0.985 | 0.988 | –
